Assay results as given in ChEMBL document CHEMBL4422645, “Benzimidazole tethered pyrrolo[3,4-b]quinoline with broad-spectrum activity against fungal pathogens” (Bioorg Med Chem Lett, 2019).
Values after ≈ are worked out from the molar mass of the structure shown.

What was measured:
[1] = system: Candida albicans; test: Antifungal activity against Candida albicans after 24 hrs by microbroth dilution method; format: functional
[2] = system: Candida albicans; test: Antifungal activity against Candida albicans NR-29435 after 24 hrs by microbroth dilution method; format: functional; conditions: NR-29435, 24 h
[3] = system: Candida albicans; test: Antifungal activity against Candida albicans NR-29367 after 24 hrs by microbroth dilution method; format: functional; conditions: NR-29367, 24 h
[4] = system: Cryptococcus neoformans; test: Antifungal activity against Cryptococcus neoformans NR-41294 after 24 hrs by microbroth dilution method; format: functional; conditions: NR-41294, 24 h
[5] = system: Candida albicans; test: Antifungal activity against Candida albicans […] after 24 hrs by microbroth dilution method; format: functional
[6] = system: Candida albicans; test: Antifungal activity against Candida albicans NR-29442 after 24 hrs by microbroth dilution method; format: functional; conditions: NR-29442, 24 h
[7] = system: Candida albicans; test: Antifungal activity against Candida albicans NR-29446 after 24 hrs by microbroth dilution method; format: functional; conditions: NR-29446, 24 h
[8] = system: Candida albicans; test: Antibiofilm activity against 48 hrs old pre-formed biofilms of Candida albicans ATCC 10231 at 128 ug/ml after 24 hrs by MTS assay relative to control; format: functional
[9] = system: Cryptococcus neoformans; test: Antifungal activity against Cryptococcus neoformans NR-41299 after 24 hrs by microbroth dilution method; format: functional; conditions: NR-41299, 24 h
[10] = system: Candida albicans; test: Antifungal activity against Candida albicans NR-29440 after 24 hrs by microbroth dilution method; format: functional; conditions: NR-29440, 24 h
[11] = system: Candida albicans; test: Antibiofilm activity against 48 hrs old pre-formed biofilms of Candida albicans ATCC 10231 at 32 ug/ml after 24 hrs by MTS assay relative to control; format: functional
[12] = system: Cryptococcus neoformans; test: Antifungal activity against Cryptococcus neoformans NR-41298 after 24 hrs by microbroth dilution method; format: functional; conditions: NR-41298, 24 h
[13] = system: Candida albicans; test: Antibiofilm activity against 48 hrs old pre-formed biofilms of Candida albicans ATCC 10231 at 16 ug/ml after 24 hrs by MTS assay relative to control; format: functional
[14] = system: Candida albicans; test: Antifungal activity against Candida albicans NR-29437 after 24 hrs by microbroth dilution method; format: functional; conditions: NR-29437, 24 h
[15] = system: Candida albicans; test: Antifungal activity against Candida albicans NR-29439 after 24 hrs by microbroth dilution method; format: functional; conditions: NR-29439, 24 h
[16] = system: Candida albicans; test: Antifungal activity against Candida albicans NR-29441 after 24 hrs by microbroth dilution method; format: functional; conditions: NR-29441, 24 h
[17] = system: Candida parapsilosis; test: Antifungal activity against Candida parapsilosis ATCC 22019 after 24 hrs by microbroth dilution method; format: functional; conditions: Lodderomyces parapsilosis, ATCC 22019, 24 h
[18] = system: Candida albicans; test: Antifungal activity against Candida albicans NR-29366 after 24 hrs by microbroth dilution method; format: functional; conditions: NR-29366, 24 h
[19] = system: Candida albicans; test: Antifungal activity against Candida albicans NR-29434 after 24 hrs by microbroth dilution method; format: functional; conditions: NR-29434, 24 h
[20] = system: Cryptococcus neoformans; test: Antifungal activity against Cryptococcus neoformans NR-41291 after 24 hrs by microbroth dilution method; format: functional; conditions: NR-41291, 24 h
[21] = system: Cryptococcus neoformans; test: Antifungal activity against Cryptococcus neoformans NR-41292 after 24 hrs by microbroth dilution method; format: functional; conditions: NR-41292, 24 h
[22] = system: Candida albicans; test: Antifungal activity against Candida albicans NR-29448 after 24 hrs by microbroth dilution method; format: functional; conditions: NR-29448, 24 h
[23] = system: Nakaseomyces glabratus; test: Antifungal activity against Candida glabrata ATCC 90030 after 24 hrs by microbroth dilution method; format: functional; conditions: ATCC 90030, 24 h
[24] = system: Candida albicans; test: Antifungal activity against Candida albicans NR-29444 after 24 hrs by microbroth dilution method; format: functional; conditions: NR-29444, 24 h
[25] = system: HCT-116; test: Cytotoxicity against human HCT116 cells assessed as reduction in cell viability up to 4 ug/ml after 24 hrs by MTS assay; format: cell-based; conditions: hct-116, 24 h
[26] = system: Candida albicans; test: Antifungal activity against Candida albicans NR-29438 after 24 hrs by microbroth dilution method; format: functional; conditions: NR-29438, 24 h
[27] = system: Candida albicans; test: Antifungal activity against Candida albicans ATCC 10231 after 24 hrs by microbroth dilution method; format: functional; conditions: ATCC 10231, 24 h
[28] = system: HCT-116; test: Cytotoxicity against human HCT116 cells assessed as reduction in cell viability at 32 to 128 ug/ml after 24 hrs by MTS assay; format: cell-based; conditions: hct-116, 24 h
[29] = system: Cryptococcus neoformans; test: Antifungal activity against Cryptococcus neoformans NR-41297 after 24 hrs by microbroth dilution method; format: functional; conditions: NR-41297, 24 h
[30] = system: Cryptococcus neoformans; test: Antifungal activity against Cryptococcus neoformans NR-41295 after 24 hrs by microbroth dilution method; format: functional; conditions: NR-41295, 24 h
[31] = system: Candida albicans; test: Antifungal activity against Candida albicans NR-29449 after 24 hrs by microbroth dilution method; format: functional; conditions: NR-29449, 24 h
[32] = system: Cryptococcus neoformans; test: Antifungal activity against Cryptococcus neoformans NR-41296 after 24 hrs by microbroth dilution method; format: functional; conditions: NR-41296, 24 h

Cc1ccc2nc3c(cc2c1)Cn1c-3nc2ccccc21
MIC [1]: 32 µg/mL (≈ 118 µM)

c1ccc2nc3c(cc2c1)Cn1c-3nc2ccccc21
MIC [2]: 0.5 µg/mL (≈ 1.94 µM)
MIC [3]: 0.5 µg/mL (≈ 1.94 µM)
MIC [4]: 1 µg/mL (≈ 3.89 µM)
MIC [5]: 0.0625 µg/mL (≈ 0.243 µM)
MIC [6]: 0.5 µg/mL (≈ 1.94 µM)
MIC [7]: 0.5 µg/mL (≈ 1.94 µM)
Activity [8]: 60%
MIC [9]: 2 µg/mL (≈ 7.77 µM)
MIC [10]: 0.5 µg/mL (≈ 1.94 µM)
Activity [11]: 40%
MIC [12]: 2 µg/mL (≈ 7.77 µM)
Activity [13]: 25%
MIC [14]: 0.0625 µg/mL (≈ 0.243 µM)
MIC [15]: 0.5 µg/mL (≈ 1.94 µM)
MIC [16]: 0.5 µg/mL (≈ 1.94 µM)
MIC [17]: 1 µg/mL (≈ 3.89 µM)
MIC [18]: 0.5 µg/mL (≈ 1.94 µM)
MIC [19]: 0.25 µg/mL (≈ 0.972 µM)
MIC [20]: 1 µg/mL (≈ 3.89 µM)
MIC [21]: 0.5 µg/mL (≈ 1.94 µM)
MIC [22]: 0.25 µg/mL (≈ 0.972 µM)
MIC [23]: 1 µg/mL (≈ 3.89 µM)
MIC [24]: 0.25 µg/mL (≈ 0.972 µM)
Activity [25]: Non-Toxic
MIC [26]: 0.25 µg/mL (≈ 0.972 µM)
MIC [27]: 0.5 µg/mL (≈ 1.94 µM)
Activity [28]: 25%
MIC [29]: 0.5 µg/mL (≈ 1.94 µM)
MIC [1]: 0.5 µg/mL (≈ 1.94 µM)
MIC [30]: 2 µg/mL (≈ 7.77 µM)
MIC [31]: 0.0625 µg/mL (≈ 0.243 µM)
MIC [32]: 1 µg/mL (≈ 3.89 µM)

COc1ccc2nc3c(cc2c1)Cn1c-3nc2ccccc21
MIC [1]: 16 µg/mL (≈ 55.7 µM)

Cc1ccc2cc3c(nc2c1)-c1nc2ccccc2n1C3
MIC [1]: 32 µg/mL (≈ 118 µM)

OC(Cn1cncn1)(Cn1cncn1)c1ccc(F)cc1F [FLUCONAZOLE]
MIC [2]: 0.25 µg/mL (≈ 0.816 µM)
MIC [3]: > 64 µg/mL
MIC [4]: 2 µg/mL (≈ 6.53 µM)
MIC [5]: 2 µg/mL (≈ 6.53 µM)
MIC [6]: 16 µg/mL (≈ 52.2 µM)
MIC [7]: > 64 µg/mL
Activity [8]: 40%
MIC [9]: 2 µg/mL (≈ 6.53 µM)
MIC [10]: 2 µg/mL (≈ 6.53 µM)
MIC [12]: 4 µg/mL (≈ 13.1 µM)
Activity [13]: 25%
MIC [14]: 2 µg/mL (≈ 6.53 µM)
MIC [15]: > 64 µg/mL
MIC [16]: 4 µg/mL (≈ 13.1 µM)
MIC [17]: 0.25 µg/mL (≈ 0.816 µM)
MIC [18]: > 64 µg/mL
MIC [19]: 0.5 µg/mL (≈ 1.63 µM)
MIC [20]: 1 µg/mL (≈ 3.27 µM)
MIC [21]: 1 µg/mL (≈ 3.27 µM)
MIC [22]: > 64 µg/mL
MIC [23]: 1 µg/mL (≈ 3.27 µM)
MIC [24]: 2 µg/mL (≈ 6.53 µM)
MIC [26]: 0.5 µg/mL (≈ 1.63 µM)
MIC [27]: 1 µg/mL (≈ 3.27 µM)
MIC [29]: 0.5 µg/mL (≈ 1.63 µM)
MIC [30]: 2 µg/mL (≈ 6.53 µM)
MIC [31]: 0.5 µg/mL (≈ 1.63 µM)
MIC [32]: 1 µg/mL (≈ 3.27 µM)

COc1cccc2cc3c(nc12)-c1nc2ccccc2n1C3
MIC [1]: 64 µg/mL (≈ 223 µM)

Clc1cccc2cc3c(nc12)-c1nc2ccccc2n1C3
MIC [1]: 64 µg/mL (≈ 219 µM)

Cc1cccc2cc3c(nc12)-c1nc2ccccc2n1C3
MIC [1]: 16 µg/mL (≈ 59 µM)

Brc1cccc2cc3c(nc12)-c1nc2ccccc2n1C3
MIC [1]: > 64 µg/mL

COc1ccc2cc3c(nc2c1)-c1nc2ccccc2n1C3
MIC [1]: > 64 µg/mL
